From patent US11622974B2, “Prebiotic composition and its use” (CP KELCO U.S., INC., priority 2019, dated 2023)

Assays:
[1] = tested on: Bifidobacterium; assay: i-screen in vitro fermentation of fecal microbiota pool: Bifidobacterium growth; format: cell-based; settings: second i-screen, relative to untreated control (1.0)
Procedure: (§1) Samples containing 8 mg/mL (0.8% w/v) of SPS or SOS were diluted by a factor of two to provide samples containing 4 mg/mL (0.4% w/v) of SPS or SOS. The effect of Sample Nos. 1-12 at a concentration of 4 mg/mL on a panel of over twenty-five gut microbiota was assessed after 24 h of fermentation using an in vitro fermentation screening platform (“i-screen”), as described by Fehlbaum (2018). Specifically, a standard fecal microbiota pool derived from 5-6 healthy adults (health based on exclusion criteria) was used that was pre-cultured overnight from a frozen stock. […] A number of sphingan samples and comparative samples—plant extracts (e.g., pectins, pectin oligosaccharides, and carrageenans) and biogums (e.g., xanthan and xanthan oligosaccharides)) were analyzed at a concentration of about 4 mg/mL, which corresponds to a dose of about 4 g/day. […]
(§2) Shifts in microbiota composition were determined by next generation sequencing, which recognizes bacteria at the genus level and in many cases (but not all) at the species level. To have a uniform distribution of samples in the sequencing pool total bacterial load was established by a quantitative Polymerase Chain Reaction (“PCR”) using a universal primer-probe set. […] Next, amplicons were gel-purified, quantified and pooled. […]
(§3) The standard controls were carried out in triplicate. […] The effect was determined relative to an untreated control. […]

[2] = tested on: Parabacteroides; assay: i-screen in vitro fermentation of fecal microbiota pool: Parabacteroides growth; format: cell-based; settings: second i-screen, pool H1, relative to untreated control (1.0)
Procedure: as §1, §2, §3

[3] = tested on: Butyricicoccus; assay: i-screen in vitro fermentation: Butyricicoccus growth; format: cell-based; settings: second i-screen, relative to untreated control (1.0)
Procedure: as §1, §2, §3

[4] = tested on: Lachnospiraceae unclassified; assay: i-screen in vitro fermentation: Lachnospiraceae unclassified growth; format: cell-based; settings: second i-screen, relative to untreated control (1.0)
Procedure: as §1, §2, §3

[5] = tested on: Clostridium XlVa; assay: i-screen in vitro fermentation: Clostridium XlVa growth; format: cell-based; settings: second i-screen, relative to untreated control (1.0)
Procedure: The effect of Sample Nos. 1-12 at a concentration of 4 mg/mL on a panel of over twenty-five gut microbiota was assessed after 24 h of fermentation using an in vitro fermentation screening platform (“i-screen”), as described by Fehlbaum (2018). Specifically, a standard fecal microbiota pool derived from 5-6 healthy adults (health based on exclusion criteria) was used that was pre-cultured overnight from a frozen stock. This was followed by dilution in microtiter plates in which the samples were added and subsequently anaerobically incubated for 24 h at 37° C. After incubation, culture samples were harvested and processed for further analysis. […] A number of sphingan samples and comparative samples—plant extracts (e.g., pectins, pectin oligosaccharides, and carrageenans) and biogums (e.g., xanthan and xanthan oligosaccharides)) were analyzed at a concentration of about 4 mg/mL, which corresponds to a dose of about 4 g/day.

[6] = tested on: Coprococcus; assay: i-screen in vitro fermentation: Coprococcus growth; format: cell-based; settings: second i-screen, relative to untreated control (1.0)
Procedure: as §1, §2, §3

[7] = tested on: Phascolarctobacterium; assay: i-screen in vitro fermentation: Phascolarctobacterium growth; format: cell-based; settings: second i-screen, relative to untreated control (1.0)
Procedure: as §1, §2, §3

[8] = tested on: Faecalibacterium; assay: i-screen in vitro fermentation of fecal microbiota pool: Faecalibacterium growth; format: cell-based; settings: second i-screen, pool H1, relative to untreated control (1.0)
Procedure: as §1, §2, §3

[9] = tested on: Blautia; assay: i-screen in vitro fermentation of fecal microbiota pool: Blautia growth; format: cell-based; settings: second i-screen, pool H1, relative to untreated control (1.0)
Procedure: as §1, §2, §3

[10] = tested on: IL-1β; assay: Caco-2/THP1-Blue co-culture: IL-1β secretion after LPS; format: cell-based, human; settings: control tests, versus LPS+
Source text: (§4) Samples collected from the SHIME experiment described above were used to evaluate in vitro the effect of the fermented products on intestinal epithelial barrier function and immune markers. These include samples from the proximal and distal colon reactors of three different donors, collected at the end of the control and treatment periods.
(§5) Briefly, the apical compartment (containing the Caco-2 cells) was filled with sterile-filtered (0.22 μm) colonic SHIME suspensions or with different concentrations of live bacteria. Cells were also treated apically with sodium butyrate (NaB) (Sigma-Aldrich) as positive control. The basolateral compartment (containing the THP1-Blue™ cells) was filled with Caco-2 complete medium. Cells were also exposed to Caco-2 complete medium in both chambers as control. Cells were treated for 24 h, after which the TEER was measured (=24 h time point). After subtracting the TEER of the empty insert, all 24 h values were normalized to its own 0 h value (to account for the differences in initial TEER of the different inserts) and are presented as percentage of initial value. Then, the basolateral supernatant was discarded, and cells were stimulated at the basolateral side with Caco-2 complete medium containing ultrapure LPS (Escherichia coli K12, InvivoGen). […]

[11] = tested on: NF-κB; assay: Caco-2/THP1-Blue co-culture: NF-κB activity after LPS; format: cell-based, human; settings: control tests, versus LPS+
Source text: as §4
THP1-Blue™ (InvivoGen) cells were maintained in Roswell Park Memorial Institute (RPMI) 1640 medium containing glucose and glutamine, supplemented with HEPES, sodium pyruvate and 10% (v/v) H1-FBS. THP1-Blue™ are THP1 human monocytes stably transfected with a reporter construct expressing a secreted alkaline phosphatase (SEAP) gene under the control of a promoter inducible by the transcription factor nuclear factor kappa B (NF-κB). Upon TLR activation (e.g., by lipopolysaccharide (LPS); isolated from Gram-negative bacteria), NF-κB becomes activated and induces the expression and secretion of SEAP. SEAP activity can then be measured in the supernatants by using the QUANTI-Blue reagent (InvivoGen). […]
Briefly, the apical compartment (containing the Caco-2 cells) was filled with sterile-filtered (0.22 μm) colonic SHIME suspensions or with different concentrations of live bacteria. […] Cells were treated for 24 h, after which the TEER was measured (=24 h time point). […]

[12] = tested on: TNF-α; assay: Caco-2/THP1-Blue co-culture: TNF-α secretion after LPS; format: cell-based, human; settings: control tests, versus LPS+
Source text: as §4, §5

[13] = tested on: CXCL10; assay: Caco-2/THP1-Blue co-culture: CXCL10 secretion after LPS; format: cell-based, human; settings: control tests, versus LPS+
Source text: as §4, §5

[14] = tested on: Caco-2/THP1-Blue™ co-cultures; assay: Caco-2/THP1-Blue co-culture: transepithelial electrical resistance (TEER); format: cell-based, human; settings: control tests, apical treatment 24 h, versus complete medium
Source text: To mimic the interface between host and gut microbiome, several in vitro models have been developed in the past years which include the use of intestinal epithelial-like cells and immune cells of human origin. The model used herein was a co-culture model of intestinal epithelial-like cells (Caco-2 cells) and human monocytes/macrophages (THP1 cells). (See FIG. 14; see also Possemiers (2013) Satsu (2006).) Caco-2, when seeded on suitable supports, spontaneously differentiate into mature enterocyte-like cells, characterized by polarization, presence of villi, formation of domes, presence of tight junctions and vectorial transport and expression of apical brush-border enzymes (reviewed by Sambuy (2005)). THP1 monocytes, isolated from a human patient with acute leukemia, differentiate into macrophage-like cells upon phorbol 12-myristate 13-acetate (PMA) treatment. […] The ‘tightness’ of these junctions can be measured as transepithelial electrical resistance (TEER), with a high TEER corresponding to a tighter barrier. Upon loss of barrier function, the paracellular transport (in-between cells) of fluids increases, which can be measured as a reduction of the TEER. […] This is possibly due to cytokine-mediated disruption of tight junctions and can be measured as a decrease in TEER. […]

[15] = tested on: IL-8; assay: Caco-2/THP1-Blue co-culture: IL-8 secretion after LPS; format: cell-based, human; settings: control tests, versus LPS+
Source text: as §4, §5

[16] = tested on: IL-10; assay: Caco-2/THP1-Blue co-culture: IL-10 secretion after LPS; format: cell-based, human; settings: control tests, versus LPS+
Source text: as §4, §5

[17] = tested on: MCP-1; assay: Caco-2/THP1-Blue co-culture: MCP-1 secretion after LPS; format: cell-based, human; settings: control tests, versus LPS+
Source text: as §4, §5

[18] = tested on: IL-6; assay: Caco-2/THP1-Blue co-culture: IL-6 secretion after LPS; format: cell-based, human; settings: control tests, versus LPS+
Source text: as §4, §5

SMILES: CC1(C)S[C@@H]2[C@H](NC(=O)[C@H](N)c3ccc(O)cc3)C(=O)N2[C@H]1C(=O)O [CS20, Amoxicillin]
- Bifid. growth [1]: 0.24
- Para. growth [2]: 12.10
- Butyr. growth [3]: 0.00
- Lachn. U. growth [4]: 0.04
- ClX1Va growth [5]: 0.03
- Copro. growth [6]: 0.04
- Phasc. growth [7]: 0.08
- Faecal. growth [8]: 0.37
- Blaut. growth [9]: 0.23

SMILES: C[C@]12CCC(=O)C=C1CC[C@@H]1[C@@H]2[C@@H](O)C[C@@]2(C)[C@H]1CC[C@]2(O)C(=O)CO [HC, hydrocortisone]
- LPS-induced IL-1β expression [10]: did not reduce
- LPS-induced NF-κB transcriptional activity [11]: inhibiting

SMILES: CCCC(=O)[O-].[Na+] [NaB, sodium butyrate]
- LPS-induced TNF-α [12]: selectively inhibited
- LPS-induced CXCL10 [13]: selectively inhibited
- TEER of the Caco-2 monolayer [14]: maintain the TEER
- LPS-induced IL-8 [15]: selectively inhibited
- LPS-induced IL-1β expression [10]: did not reduce
- LPS-induced IL-10 secretion [16]: selectively increased
- LPS-induced MCP-1 [17]: selectively inhibited
- LPS-induced IL-6 secretion [18]: selectively increased
- LPS-induced NF-κB transcriptional activity [11]: increased
